Measured values from ChEMBL document CHEMBL5465560, “Selectivity Literature for EUbOPEN Chemogenomic Library” (2024).
Where a chain is given by its changes, count along the chain named.

Assays:
[1] = target: Receptor-type tyrosine-protein kinase FLT3 (Homo sapiens) (UniProt P36888); assay: (§1) Selectivity interaction (KinomeScan (DiscoverX)) EUB0000229b FLT3; settings: at 10 µM
[2] = tested on: T1, Receptor-type tyrosine-protein kinase FLT3 (Homo sapiens), P36888 [D835H]; assay: as §1; settings: at 1 µM
T1 sequence (whole entry): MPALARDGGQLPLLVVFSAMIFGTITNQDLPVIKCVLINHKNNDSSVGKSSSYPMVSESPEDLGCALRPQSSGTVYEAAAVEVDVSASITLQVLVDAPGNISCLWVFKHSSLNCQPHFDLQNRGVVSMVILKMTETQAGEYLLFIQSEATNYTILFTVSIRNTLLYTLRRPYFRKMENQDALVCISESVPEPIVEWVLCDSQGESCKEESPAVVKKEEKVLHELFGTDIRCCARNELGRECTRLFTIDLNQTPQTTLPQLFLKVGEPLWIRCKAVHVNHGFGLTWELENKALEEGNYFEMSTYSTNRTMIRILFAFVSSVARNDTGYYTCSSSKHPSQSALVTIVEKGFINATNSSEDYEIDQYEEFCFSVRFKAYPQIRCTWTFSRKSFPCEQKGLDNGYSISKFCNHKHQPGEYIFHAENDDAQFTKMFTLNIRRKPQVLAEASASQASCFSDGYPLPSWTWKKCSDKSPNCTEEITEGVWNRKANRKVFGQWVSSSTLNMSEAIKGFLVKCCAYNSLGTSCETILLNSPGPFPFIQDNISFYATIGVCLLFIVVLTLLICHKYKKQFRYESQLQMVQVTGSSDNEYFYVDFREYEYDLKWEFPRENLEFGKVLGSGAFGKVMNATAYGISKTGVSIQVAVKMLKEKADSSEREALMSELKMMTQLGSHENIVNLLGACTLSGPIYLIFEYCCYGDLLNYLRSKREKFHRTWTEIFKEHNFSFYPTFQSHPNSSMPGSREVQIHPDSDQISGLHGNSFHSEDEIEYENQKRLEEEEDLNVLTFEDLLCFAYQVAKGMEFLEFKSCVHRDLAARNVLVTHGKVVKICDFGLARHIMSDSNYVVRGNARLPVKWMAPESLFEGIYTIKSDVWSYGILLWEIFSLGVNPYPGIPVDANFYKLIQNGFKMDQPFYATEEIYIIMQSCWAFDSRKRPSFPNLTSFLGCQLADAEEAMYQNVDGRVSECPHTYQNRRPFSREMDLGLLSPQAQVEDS

[3] = tested on: T2, Receptor-type tyrosine-protein kinase FLT3 (Homo sapiens), P36888 [N841I]; assay: as §1; settings: at 1 µM
T2 sequence (whole entry): T1 sequence (whole entry) with H835D, N841I

[4] = tested on: T3, Receptor-type tyrosine-protein kinase FLT3 (Homo sapiens), P36888 [R834Q]; assay: as §1; settings: at 1 µM
T3 sequence (whole entry): T1 sequence (whole entry) with R834Q, H835D

[5] = tested on: Receptor-type tyrosine-protein kinase FLT3 (Homo sapiens), P36888 [UNDEFINED MUTATION]; assay: as §1; settings: at 1 µM

## COc1cc(N(C)c2ccnc3ccc(C(F)(F)F)cc23)cc(OC)c1OC
[1]
  % binding: 78%
[2]
  % binding: 90%
[3]
  % binding: 84%
[4]
  % binding: 100%
[5]
  % binding: 54%
